Patent publication US6479499B1
≈ marks a conversion by molar mass, not a printed value. Read-outs that look alike come from different tables or passages of the source.

Legend:
[1] = system: epidermoid carcinoma of the nasopharynx (KB); assay: In vitro cytotoxicity, KB; conditions: Homo sapiens; for IC50: 96 h, read-out: ED50 KB
[2] = system: human ovarian cancer (1A9); assay: In vitro cytotoxicity, 1A9; conditions: 96 h, read-out: ED50 1A9
[3] = system: bone (HOS); assay: In vitro cytotoxicity, HOS; conditions: Homo sapiens; for IC50: 96 h, read-out: ED50 HOS; for inhibition at 20 µg/mL: read-out: Inhibition at highest test concentration (in brackets), HOS
[4] = system: prostate cancer (PC3); assay: In vitro cytotoxicity, PC3; conditions: Homo sapiens; for IC50: 96 h, read-out: ED50 PC3; for inhibition at 20 µg/mL: read-out: Inhibition at highest test concentration (in brackets), PC3
[5] = system: ileocecal carcinoma (HCT-8); assay: In vitro cytotoxicity, HCT-8; conditions: Homo sapiens; for IC50: HCT-8, 96 h, read-out: ED50 HCT-8
[6] = system: lung carcinoma (A-549); assay: In vitro cytotoxicity, A-549; conditions: Homo sapiens; for IC50: A549, 96 h, read-out: ED50 A-549
[7] = system: breast cancer (MCF-7); assay: In vitro cytotoxicity, MCF-7; conditions: Homo sapiens; for IC50: MCF7, 96 h, read-out: ED50 MCF-7; for inhibition at 20 µg/mL: MCF7, read-out: Inhibition at highest test concentration (in brackets), MCF-7
[8] = system: P-gp-expressing epidermoid carcinoma of the nasopharynx (KB-VIN); assay: In vitro cytotoxicity, KB-VIN; conditions: Homo sapiens, KBVIN, 96 h, read-out: ED50 KB-VIN
[9] = system: glioblastoma (U-87-MG); assay: In vitro cytotoxicity, U-87-MG; conditions: Homo sapiens; for IC50: 96 h, read-out: ED50 U-87-MG; for inhibition at 20 µg/mL: read-out: Inhibition at highest test concentration (in brackets), U-87-MG
[10] = system: melanoma (SKMEL-2); assay: In vitro cytotoxicity, SKMEL-2; conditions: for IC50 / inhibition at 20 µg/mL: Homo sapiens; for IC50: SK-MEL-2, 96 h, read-out: ED50 SKMEL-2; for inhibition at 20 µg/mL: SK-MEL-2, read-out: Inhibition at highest test concentration (in brackets), SKMEL-2
[11] = system: bovine brain tubulin; assay: Tubulin polymerization assay (antimicrotubule assay); conditions: read-out: ITP (inhibition of tubulin polymerization) IC50; tubulin […] (12 μM), 26° C., 20 min
[12] = system: ten human tumor cell lines; assay: In vitro cytotoxicity, statements on the panel of tumor cell lines
[13] = system: platelet aggregation induced by thrombin; assay: Antiplatelet assay, thrombin-induced aggregation; type: cell-based, rabbit; conditions: for Percent aggregation, thrombin: thrombin 0.1 U/ml
Method: (§1) c. Antiplatelet assay. Blood, collected from the marginal ear vein of rabbits was mixed with EDTA to a final concentration of 6 mM and centrifuged at 90 g for 10 mm at room temperature to obtain platelet-rich plasma. The latter was further centrifuged at 500 g for 10 mm and the platelets were washed with Tyrode's solution without EDTA. After centrifugation at the same conditions, the platelets were suspended in Tyrode's solution with the following compositions (mM): NaCl (136.8), KCl (2.8), NaNCO3(11.9), MgCl2(1.1), NaH2PO4(0.33), CaCl2(1.0), and glucose (11.2). Platelet numbers were determined with a Coulter Counter (Model ZM) and adjusted to 4.5×10^8 platelets/ml.
(§2) Aggregation was measured by the turbidimetric method [O'brien, J. R. J. Clin. Pathol. 1962, 15,452] with a dual-channel Lumi aggregometer (Model 1020, Payton, Canada). All glass ware was siliconized. Test compounds were added one minute before the addition of the aggregation inducer and the platelet suspension was stirred at 900 rpm. The percentage of aggregation was calculated as previously described [Teng, C. M.; Chen, W. Y.; Ko, W. C.; Ouyang, C. Biochem. Biophys. Acta. 1987, 924, 375].

[14] = system: platelet aggregation induced by arachidonic acid (AA); assay: Antiplatelet assay, arachidonic acid-induced aggregation; type: cell-based, rabbit; conditions: for IC50: Oryctolagus cuniculus, Platelet; for IC50 / Percent aggregation, AA: AA 100 μM
Method: as §1, §2

[15] = system: platelet aggregation induced by collagen; assay: Antiplatelet assay, collagen-induced aggregation; type: cell-based, rabbit
Method: as §1, §2

[16] = system: platelet aggregation induced by platelet-activating factor (PAF); assay: Antiplatelet assay, PAF-induced aggregation; type: cell-based, rabbit; conditions: for Percent aggregation, PAF: PAF 2 ng/ml
Method: as §1, §2

COc1cccc(C2NC(=O)c3ccccc3N2)c1 (racemic) [Compound 61, 2,3-Dihydro-2-(3′-methoxyphenyl)-4-quinazolinone]
IC50 [1]: 3 µg/mL (≈ 11.8 µM) | IC50 [2]: 1 µg/mL (≈ 3.93 µM) | IC50 [3]: > 20 µg/mL | inhibition at 20 µg/mL [3]: 42% | IC50 [4]: > 20 µg/mL | inhibition at 20 µg/mL [4]: 43% | IC50 [5]: 1.5 µg/mL (≈ 5.9 µM) | IC50 [6]: 3 µg/mL (≈ 11.8 µM) | IC50 [7]: > 20 µg/mL | inhibition at 20 µg/mL [7]: 48% | IC50 [8]: 1.2 µg/mL (≈ 4.72 µM) | IC50 [9]: > 20 µg/mL | inhibition at 20 µg/mL [9]: 35% | IC50 [10]: > 20 µg/mL | inhibition at 20 µg/mL [10]: 49% | IC50 [11]: 5.6 ± 1 µM | Times more active than 2′-methoxy (60) ([12]; more sensitive cell lines): about 15 times | Times more active than 4′-methoxy (62) ([12]; more sensitive cell lines): ~20 times

COc1ccc(OC)c(C2NC(=O)c3ccccc3N2)c1 (racemic) [Compound 65, 2,3-Dihydro-2-(2′,5′-dimethoxyphenyl)-4-quinazolinone]
IC50 [1]: > 20 µg/mL | inhibition at 20 µg/mL ([1]; read-out: Inhibition at highest test concentration (in brackets), KB): 40% | IC50 [2]: 10 µg/mL (≈ 35.2 µM) | IC50 [3]: > 20 µg/mL | inhibition at 20 µg/mL [3]: 40% | IC50 [4]: > 20 µg/mL | inhibition at 20 µg/mL [4]: 22% | IC50 [5]: > 20 µg/mL | inhibition at 20 µg/mL ([5]; HCT-8, read-out: Inhibition at highest test concentration (in brackets), HCT-8): 32% | IC50 [6]: > 20 µg/mL | inhibition at 20 µg/mL ([6]; A549, read-out: Inhibition at highest test concentration (in brackets), A-549): 42% | IC50 [7]: > 20 µg/mL | inhibition at 20 µg/mL [7]: 42% | IC50 [8]: 8.4 µg/mL (≈ 29.5 µM) | IC50 [9]: > 20 µg/mL | inhibition at 20 µg/mL [9]: 5% | IC50 [10]: > 20 µg/mL | inhibition at 20 µg/mL [10]: 44% | IC50 [11]: 32 ± 4 µM

COc1cc(OC)cc(C2NC(=O)c3ccccc3N2)c1 (racemic) [Compound 67, 2,3-Dihydro-2-(3′,5′-dimethoxyphenyl)-4-quinazolinone]
IC50 [1]: 4.7 µg/mL (≈ 16.5 µM) | IC50 [2]: 1.92 µg/mL (≈ 6.75 µM) | IC50 [3]: > 20 µg/mL | inhibition at 20 µg/mL [3]: 41% | IC50 [4]: > 20 µg/mL | inhibition at 20 µg/mL [4]: 44% | IC50 [5]: 3 µg/mL (≈ 10.6 µM) | IC50 [6]: 5 µg/mL (≈ 17.6 µM) | IC50 [7]: > 20 µg/mL | inhibition at 20 µg/mL [7]: 49% | IC50 [8]: 1.6 µg/mL (≈ 5.63 µM) | IC50 [9]: > 20 µg/mL | inhibition at 20 µg/mL [9]: 37% | IC50 [10]: 4.4 µg/mL (≈ 15.5 µM) | IC50 [11]: 12 ± 3 µM

COc1cccc(C2NC(=O)c3cc(Cl)ccc3N2)c1 (racemic) [Compound 68, 2,3-Dihydro-2-(3′-methoxyphenyl)-6-chloro-4-quinazolinone]
IC50 [1]: 0.95 µg/mL (≈ 3.29 µM) | IC50 [2]: 0.27 µg/mL (≈ 0.935 µM) | IC50 [3]: 20 µg/mL (≈ 69.3 µM) | IC50 [4]: 2.5 µg/mL (≈ 8.66 µM) | IC50 [5]: 0.48 µg/mL (≈ 1.66 µM) | IC50 [6]: 0.6 µg/mL (≈ 2.08 µM) | IC50 [7]: 16 µg/mL (≈ 55.4 µM) | IC50 [8]: 0.42 µg/mL (≈ 1.45 µM) | IC50 [9]: > 20 µg/mL | inhibition at 20 µg/mL [9]: 37% | IC50 [10]: < 2.5 µg/mL | Inhibition value of plateau-dose response (in brackets), SKMEL-2 ([10]; plateau-dose response, inhibition plateaus over broad dose range): 56% | IC50 [11]: 1.5 ± 0.01 µM | ED50, times less than that of 61 [12]: about 5 times

CCOc1nc(-c2ccccc2)nc2ccccc12 [Compound 70, 4-Ethoxy-2-phenylquinazoline]
Inhibition of thrombin-induced platelet aggregation in words ([13]; Table 5): poor inhibitors | Percent aggregation, thrombin ([13]; compound 20 μg/ml): 91.5 ± 1.2(4) % | Percent aggregation, thrombin ([13]; compound 50 μg/ml): 75.1 ± 7.3(4) % | Percent aggregation, thrombin ([13]; compound 100 μg/ml, 37° C., 1 min preincubation): 11.7 ± 6.5(4) % | IC50 ([14]; 37° C., 1 min preincubation, read-out: IC50, platelet aggregation induced by arachidonic acid (in vitro) (Table 6)): 1.6 µM | IC50 ([14]; read-out: IC50, AA-induced platelet aggregation (Table 5)): 1.6 µM | Inhibition of AA-induced platelet aggregation in words ([14]; Table 5): relatively stronger inhibitors | Percent aggregation, AA ([14]; compound 0.1 μg/ml): 85.5 ± 2.0(5) % | Percent aggregation, AA ([14]; compound 0.2 μg/ml): 76.9 ± 5.4(5) % | Percent aggregation, AA ([14]; compound 0.5 μg/ml): 33.8 ± 13.4(5) % | Percent aggregation, AA ([14]; compound 1 μg/ml): 0.0 ± 0.0(5) % | Percent aggregation, AA ([14]; compound 100 μg/ml): 0.0 ± 0.0(5) % | IC50 ([15]; Oryctolagus cuniculus, Platelet, collagen 10 μg/ml, read-out: IC50, collagen-induced platelet aggregation (Table 5)): 9.2 µM | Inhibition of collagen-induced platelet aggregation in words ([15]; Table 5): relatively stronger inhibitors | Percent aggregation, collagen ([15]; compound 0.1 μg/ml, collagen 10 μg/ml): 86.4 ± 2.9(4) % | Percent aggregation, collagen ([15]; compound 0.2 μg/ml, collagen 10 μg/ml): 78.5 ± 4.7(4) % | Percent aggregation, collagen ([15]; compound 0.5 μg/ml, collagen 10 μg/ml): 63.9 ± 7.4(4) % | Percent aggregation, collagen ([15]; compound 1 μg/ml, collagen 10 μg/ml): 47.1 ± 6.6(4) % | Percent aggregation, collagen ([15]; compound 2 μg/ml, collagen 10 μg/ml): 35.0 ± 10.3(4) % | Percent aggregation, collagen ([15]; compound 5 μg/ml, collagen 10 μg/ml): 30.1 ± 9.0(4) % | Percent aggregation, collagen ([15]; compound 10 μg/ml, collagen 10 μg/ml): 19.3 ± 9.8(4) % | Percent aggregation, collagen ([15]; compound 20 μg/ml, collagen 10 μg/ml): 10.3 ± 6.0(4) % | Percent aggregation, collagen ([15]; compound 50 μg/ml, collagen 10 μg/ml): 0.0 ± 0.0(4) % | Percent aggregation, collagen ([15]; compound 100 μg/ml, collagen 10 μg/ml): 0.0 ± 0.0(4) % | Inhibition of PAF-induced platelet aggregation in words ([16]; Table 5): poor inhibitors | Percent aggregation, PAF ([16]; compound 20 μg/ml): 88.8 ± 1.0(4) % | Percent aggregation, PAF ([16]; compound 50 μg/ml): 19.8 ± 7.0(4) % | Percent aggregation, PAF ([16]; compound 100 μg/ml): 2.1 ± 1.8(4) %
